Molecules are shown by their SMILES. “And” between values parts separate entries of the source, which are not always exact repeats. Identical values can stand only once. “Also recorded” adds a separate entry of the source. Like-named read-outs stand apart in the source and are kept apart here.

Details of series [1]: method as in PMID 19738123. As to conditions: uncoated tablet formulation; cited from earlier work.
Details of series [2]: method as in ref 29 = [29]; 29 U.S. Food and Drug Administration . Application Number: 211349Orig1s000; Multi‐Discipline Review. https://www.accessdata.fda.gov/drugsatfda_docs/nda/2018/211349Orig1s000MultidisciplineR.pdf . Publi. As to conditions: single 40‐mg tablet; cited from earlier work.
Details of series [3]: method as in ref 23 = [23]; 23 U.S. Food and Drug Administration . Application Number: 207997Orig1s000; 207997Orig2s000. Clinical Pharmacology and Biopharmaceutics Review(s). Available at: https://www.accessdata.fda.gov/drugsatf. The note with it: single 50‐mg dose, cited from earlier work.
The conditions of series [4]: prior knowledge used for the study design and sampling duration; no reference given; cited from earlier work.
Details of series [5]: method as in data on file, Daiichi Sankyo, Inc. The note with it: ref data on file, Daiichi Sankyo, Inc; cited from earlier work.
Series [6] can be described thus: Safety assessments (AEs, ECG/QTcF, vital signs, laboratory tests) in the food-effect study. It is filed as in vivo, human. On the procedure: All randomized subjects who received quizartinib were included in the safety analysis population. Safety assessments included physical examinations, vital signs, 12‐lead ECGs, adverse event (AE) evaluations, and clinical laboratory tests. Hematology, chemistry, serology, and urinalysis tests were performed by a local laboratory. AEs and laboratory tests were graded and summarized based on National Cancer Institute Common Terminology Criteria for Adverse Events version 4.03 and assessed for severity, relation to study drugs, and clinical significance.

On the set-up of series [7]: method as in data on file, Daiichi Sankyo, Inc. The note with it: subjects with AML; ref data on file, Daiichi Sankyo, Inc; cited from earlier work.
For series [8] the following is noted: BCS classification; no reference given; cited from earlier work.
Series [9] has as its system cytochrome P450 3A. The note with it: cited from earlier work.

Turning to `CC1(COc2ccc3c(c2)ncn3-c2ccc3cccc(N4CCC(N)CC4)c3n2)COC1` [crenolanib], in [1], the “effect of food on interpatient variability of Cmax and AUCinf” value was “increased”; the “effect of food on terminal half‐life” value was “no effects”; the “effect of food on tmax” value is reported as “delays”.

As for `CCc1nc(C(N)=O)c(Nc2ccc(N3CCC(N4CCN(C)CC4)CC3)c(OC)c2)nc1NC1CCOCC1` [gilteritinib], in [2], the “decrease in AUC with a high‐fat meal vs the fasted state” value is recorded as below 10%, the “decrease in Cmax with a high‐fat meal vs the fasted state” value is listed as 26% and the “delay in median tmax with a high‐fat meal” value was 2 h.

As for `CO[C@@H]1[C@H](N(C)C(=O)c2ccccc2)C[C@H]2O[C@]1(C)n1c3ccccc3c3c4c(c5c6ccccc6n2c5c31)C(=O)NC4` [midostaurin], the “increase in exposure with food” value is 1.6 fold in [3] (high‐fat meal (900–1000 calories, 50% fat content)) and 1.2 fold in series [3] (standard meal (450 calories, 25% fat content)).

As to `CC(C)(C)c1cc(NC(=O)Nc2ccc(-c3cn4c(n3)sc3cc(OCCN5CCOCC5)ccc34)cc2)no1.Cl.Cl` [quizartinib, N‐(5‐tert‐butyl‐isoxazol‐3‐yl)‐N′‐{4‐[7‐(2‐morpholin‐4‐yl‐ethoxy)imidazo[2,1‐b][1,3]benzothiazol‐2‐yl]phenyl}urea dihydrochloride], the “terminal elimination half‐life (t1/2)” value in [4] is “approximately 100 hours”. In series [5], the Plasma protein binding is above 99%. Besides, the tolerability result in series [6] (30‐mg single dose, fed and fasted healthy subjects) was “safe and well tolerated”. Besides, in [6] (all subjects (N = 64)), the “subjects with maximum QTcF ≤450 milliseconds” value is 64 (100%) n (%) and the “subjects with maximum change from baseline QTcF ≤30 milliseconds” value was 98.4%. Further, in [6] (fasted (n = 34)), the “Number of TEAEs” value amounted to 16; the “Number of treatment‐related AEs” value is 6; the “Subjects with a treatment‐related AE, n (%)” value was 4 (11.8%) n (%) and 4 (11.8) n (%); the “Subjects with any TEAE by maximum severity: Mild, n (%)” value (“Subjects with any TEAE … Mild, n (%)” for short) is 7 (20.6) n (%). In series [6] (fasted (n = 34)), the “Subjects with any TEAE by maximum severity: Moderate, n (%)” value (shortened to “Subjects with any TEAE … Moderate, n (%)”) is given as 1 (2.9) n (%) and the “Subjects with any TEAE by maximum severity: Severe, n (%)” value (“Subjects with any TEAE … Severe, n (%)” below) was 1 (2.9) n (%). For the same molecule, the “Subjects with a TEAE, n (%)” value in series [6] (fasted (n = 34), single 30-mg dose) was 9 (26.5%) n (%) and 9 (26.5) n (%). In [6] (fed (n = 30)), the “Number of TEAEs” value is recorded as 7; the “Number of treatment‐related AEs” value was 4; the “Subjects with a treatment‐related AE, n (%)” value was 2 (6.7%) n (%) and 2 (6.7) n (%); the “Subjects with any TEAE … Mild, n (%)” value is 5 (16.7) n (%). Moreover, in [6] (fed (n = 30)), the “Subjects with any TEAE … Moderate, n (%)” value is 0 n (%) and the “Subjects with any TEAE … Severe, n (%)” value is on record as 0 n (%). Moreover, in series [6] (fed (n = 30), single 30-mg dose), the “Subjects with a TEAE, n (%)” value was 5 (16.7%) n (%) and 5 (16.7) n (%). Further, in series [6] (overall (N = 64)), the “Number of TEAEs” value is listed as 23; the “Number of treatment‐related AEs” value was determined as 10; the “Subjects with a treatment‐related AE, n (%)” value was 6 (9.4%) n (%) and 6 (9.4) n (%); the “Subjects with any TEAE … Mild, n (%)” value was 12 (18.8) n (%). In addition, in series [6] (overall (N = 64)), the “Subjects with any TEAE … Moderate, n (%)” value is listed as 1 (1.6) n (%) and the “Subjects with any TEAE … Severe, n (%)” value was 1 (1.6) n (%). For the same molecule, the “Subjects with a TEAE, n (%)” value in series [6] (overall (N = 64), single 30-mg dose) is on record as 14 (21.9) n (%). For the same molecule, the “serious AEs or discontinuations due to AEs” value in series [6] (single 30-mg dose, fed and fasted) is listed as “no discontinuations due to adverse events occurred; also recorded: no serious AEs or discontinuations due to AEs”. Further, the “subjects with maximum change from baseline QTcF >30 milliseconds and ≤60 milliseconds” value in series [6] (subject in the fasted group, percentage of N = 64) is 1 (1.6%) n (%). In addition, the “effective half‐life” value in series [7] was 73 h. Further, in series [8], the permeability result is on record as “low” and the solubility result is recorded as “low”. Further, the “cytochrome P450 3A substrate status” value in [9] is “substrate”.

Source of the values: article PMC7027461 (Clinical Pharmacology in Drug Development, 2020).
